Test results published in patent US10975354B2, “Transdifferentiated cell populations and methods of use thereof” (ORGENESIS LTD., priority 2017, dated 2021).

B1: Wnt3A: WNT3A protein (R&D), Wnt-pathway agonist (protein, UniProt P56704 19-352, looked up)
Protein Wnt-3a: SYPIWWSLAVGPQYSSLGSQPILCASIPGLVPKQLRFCRNYVEIMPSVAEGIKIGIQECQHQFRGRRWNCTTVHDSLAIFGPVLDKATRESAFVHAIASAGVAFAVTRSCAEGTAAICGCSSRHQGSPGKGWKWGGCSEDIEFGGMVSREFADARENRPDARSAMNRHNNEAGRQAIASHMHLKCKCHGLSGSCEVKTCWWSQPDFRAIGDFLKDKYDSASEMVVEKHRESRGWVETLRPRYTYFKVPTERDLVYYEASPNFCEPNPETGSFGTRDRTCNVSSHGIDGCDLLCCGRGHNARAERRREKCRCVFHWCCYVSCQECTRVYDVHTCK

Key:
DsRed+ cells = assay: Reprogramming of DsRed+ cells with Li followed by pTFs in the presence of HDACi; type: cell-based, human; conditions: combination with 10 mM Li for 48 hours; 5 mM SB or 1 μM SAHA during 2+1 TD
Description: Wnt-pathway activation was induced by supplementing cell medium with 10 mM Li for 48 hours. Subsequently, cells were transdifferentiated by pancreatic transcription factors (pTFs) in the presence of 5 mM sodium butyrate (SB) (FIG. 44A) or 1 μM suberanilohydroxamic acid (SAHA) (FIG. 44B). […] Bars show ratios of transcript levels of cells treated with HDACi and pTFs compared with cells treated with pTFs alone. Transcript levels were normalized to β-actin transcript levels. N=4 independent experiments with cells from two donors. * P-value<0.05.
Representative HDACi sodium-butyrate (SB) and suberanilohydroxamic acid (SAHA) were used to induce histone hyperacetylation, which is associated with permissive chromatin structure. Methods: Primary liver cells were incubated with 10 mM lithium (Li) for 48 hours to activate Wnt signaling. Subsequently, cells were contacted with pancreatic transcription factors according to the “2+1” transdifferentiation protocol described in Example 12 in the presence of 5 mM SB (Na-Butyrate) or 1 μM SAHA.

eGFP+ cells [1] = assay: Transdifferentiation of DKK-treated eGFP+ cells in the presence of sodium butyrate; type: cell-based, human; conditions: DKK 3 μg/ml for 48 hours, then pTFs with 5 mM sodium butyrate
Description: Wnt-pathway activation was induced by supplementing cell medium with 10 mM Li for 48 hours. Subsequently, cells were transdifferentiated by pancreatic transcription factors (pTFs) in the presence of 5 mM sodium butyrate (SB) (FIG. 44A) or 1 μM suberanilohydroxamic acid (SAHA) (FIG. 44B). In the GFP+ cell population, a similar effect was observed when Wnt-pathway was inhibited by supplementing serum-based medium with 3 μg/ml Dickkopf (DKK) for 48 hours followed by the transdifferentiation of cells by pTFs in the presence of 5 mM sodium butyrate (SB) (FIG. 44C). Bars show ratios of transcript levels of cells treated with HDACi and pTFs compared with cells treated with pTFs alone. Transcript levels were normalized to β-actin transcript levels. N=4 independent experiments with cells from two donors. * P-value<0.05.
Similarly, SB (HDAC inhibitor) treatment alleviated the effect of Wnt signaling inhibition of eGFP+ cells (FIG. 44C).

eGFP+ cells [2] = assay: Pancreatic hormones gene expression (real-time RT-PCR) in eGFP+ cells supplemented with DKK3; type: cell-based, human; conditions: Ad-CMV-Pdx-1, 5 days, DKK3 0.5 μg/ml
Description: Pancreatic hormones gene expression was studied by Quantitative real-time RT-PCR compared to the control-treated cells.
Total RNA was isolated and cDNA was prepared and amplified, as described previously (Ber et al, (2003) J Biol Chem 278: 31950-31957; Sapir et al, (2005) ibid). Quantitative real-time RT-PCR was performed using ABI Step one plus sequence Detection system (Applied Biosystems, CA, USA), as described previously (Sapir et al, (2005) ibid; Meivar-Levy et al, (2007) ibid; Aviv et al, (2009) J Biol Chem 284: 33509-33520).

adult human liver cells = assay: Glucose-regulated insulin secretion (radioimmunoassay) with Ad-CMV-Pdx-1 supplemented with Wnt3A or DKK3; type: cell-based; conditions: Ad-CMV-Pdx-1 and soluble factors, 5 days; 2 mM then 17.5 mM glucose
Description: Adult human liver cells were treated with Ad-CMV-Pdx-1 and soluble factors, as previously reported, supplemented with Wnt3A (50 ng/ml R&D or DKK3 (3 μg/ml R&D). After 5 days, insulin secretion was analyzed by static incubations at low followed by high glucose concentrations (2 mM and 17.5 mM glucose in KRB, respectively). Insulin secretion is measured using the human insulin radioimmunoassay kit (DPC; n≥8 from 3 different experiments) and compared to untreated cells (Cont). *p<0.01 compared to Ad-CMV-Pdx-1 alone, using Student's t-test analysis.
C-peptide and insulin secretion were measured by static incubations of primary cultures of adult liver cells 6 days after the initial exposure to the viral treatment, as described (Sapir et al, (2005) ibid; Meivar-Levy et al, (2007) ibid; Aviv et al, (2009) ibid). The glucose-regulated C-peptide secretion was measured at 2 mM and 17.5 mM glucose, which was determined by dose-dependent analyses to maximally induce insulin secretion from transdifferentiated liver cells, without having adverse effects on treated cells function (Sapir et al, (2005) ibid; Meivar-Levy et al, (2007) ibid; Aviv et al, (2009) ibid). C-peptide secretion was detected by radioimmunoassay using the human C-peptide radioimmunoassay kit (Linco Research, St. Charles, Mo.; <4% cross-reactivity to human proinsulin). […]

human liver cultures = assay: Glucose stimulated insulin secretion with WNT3A or DKK added during TD; type: cell-based; conditions: added during TD (ectopic pTFs); measured five days later
Description: FIGS. 41A-41G show active WNT signaling controls the activation of the pancreatic lineage in liver. (FIG. 41A) Efficient reprogramming of liver to pancreas relies on active WNT signaling. WNT signaling was activated by Wnt3A, or, alternatively, blocked by DKK, concomitantly to ectopic pTFs expression (TD) in human liver cultures. Glucose stimulated Insulin secretion was measured five days later. Results are average and standard error (SE) of 3-6 repeats from 3 different donors. * P-value<0.05; ** P-value<0.005; *** P-value<0.0005. […] Efficiency of reprogramming was measured by the activation of pancreatic genes expression and relative insulin secretion induced by high glucose concentrations (17.5 mM). […]
100,000 cells/well were seeded in a 6-wells plate in a low glucose DMEM media supplemented with 2 mM L-glutamine, 10% serum, antibiotics, 10 mM Nicotinamide, 20 ng/ml EGF, and 5 nM exendin4. […] After 48 hours the cells were harvested, counted, and 100,000 cells were infected with 50MOI of Ad-MafA and re-plated as above. 72 hours later the cells were analyzed for gene expression and insulin secretion, as detailed below. […]
Glucose regulated insulin secretion (FIGS. 38D and 38F, and 41A) was measured by radioimmunoassay kit (DPC, Los-Angeles, Calif.) as described previously (Berneman-Zeitouni D et al., ibid). […]

Molecule	reprogramming of DsRed+ cells (expression of PDX-1, Isl-1, Pax-4, Nkx6.1) (DsRed+ cells)	effect of Wnt signaling inhibition of eGFP+ cells (eGFP+ cells [1])	transdifferentiation capacity of eGFP cells (eGFP+ cells [2])	Pdx-1-induced glucose-regulated insulin secretion (adult human liver cells)	glucose-regulated insulin secretion (human liver cultures)
O=C(CCCCCCC(=O)Nc1ccccc1)NO [SAHA, suberanilohydroxamic acid]	increased reprogramming				
CCCC(=O)[O-].[Na+] [SB, sodium-butyrate]	increased reprogramming	alleviated			
DKK3: Dickkopf-related protein 3 (R&D), an inhibitor of the Wnt signaling pathway			totally abolished	completely abolished	
B1				increased	marked increase
